Data: patent EP0694545B1, “Substituted dibenzoxazepine compounds, pharmaceutical compositions and methods of use” (G.D. SEARLE & CO., priority 1991, dated 1992)
Structures can show the parent of a compound that is named as a salt.

What was measured:
[1] = system: Charles River male albino mice; experiment: PBQ Writhing Assay (analgesic activity); type: in vivo; parameters: key to PBQ WRITHING ASSAY I.G. (Active / *) / PBQ WRITHING ASSAY S.C. (Active / *): *: Indicates that, in accordance with the particular conditions set forth above for the Writhing Assay, and under the test criteria employed for that assay, after the administration of an initial screening dosage of 30 mg per kilogram of the compound, the number of writhes elicited by a mouse injected with PBQ was not equal to, or less than, one-half the median number of writhes recorded for the saline-treated control group of mice that day; conditions: for PBQ WRITHING ASSAY I.G. (Active / *): intragastric; for PBQ WRITHING ASSAY I.G. (Active / *) / PBQ WRITHING ASSAY S.C. (Active / *): initial screening dose 30 mg per kilogram, 30 min before PBQ i.p., writhes counted for ten minutes; for PBQ WRITHING ASSAY S.C. (Active / *): subcutaneous; for ED50: Mus musculus, po, read-out: PBQ WRITHING ASSAY (ED50 (mpk)) I.G.
From the text: The Writhing Assay is one of the most widely-used experimental procedures for measuring the analgesic activity of different narcotic and nonnarcotic analgesic agents, and involves the continuous, chemically-induced pain of visceral origin to an animal, such as a mouse or rat. [Gyires et al., Arch. int. Pharmacodyn, 267, 131-140 (1984); […] al., Fed. Proc., 15, 494 (1956); Koster et al., Fed. Proc., 18, 412 (1959); and Witken et al., J. Pharmacol. exp. Ther., 133, 400-408 (1961).] Chemicals which may be used to induce this pain include phenylbenzoquinone (PBQ) and acetic acid. As a result of the chemical irritation to the animal, a characteristic stretching and writhing of the animal (dorsiflexion of the animal's back, extension of its hindlimbs and the strong contraction of its abdominal musculature) will generally occur. […] Drugs which reduce the number of writhes of the animal appear to restore the normal nociceptive threshold of the animal. Charles River male albino mice, weighing 20 to 30 grams were used in this assay. Thirty minutes after subcutaneous or intragastric administration to ten mice of 30 mg per kilogram of body weight of a compound of the present invention ("test compound"), […] per 10 g of body weight of a 0.025% w/v solution of PBQ was injected intraperitoneally into each mouse. Ten mice which were given saline in place of a test compound of the invention were used as a control group. Five minutes later, each mouse was individually placed into a glass beaker for observation, and the number of writhes occurring during the following ten-minute period was counted. A test compound was considered to have produced analgesia in a mouse if, in accordance with the conditions set forth above, and under the test criteria employed for this assay, after the administration of 30 mg per kilogram of body weight of a compound of the present invention to the mouse, the number of writhes elicited by a mouse injected with PBQ was equal to, or less than, one-half the median number of writhes recorded for the saline-treated control group of mice that day, as described by Taber in "Predictive Value of Analgesic Assays in Mice and Rats," Advances in Biochemical Psychopharmacology, 8, 191 (1974). The standard initial screening dose of a test compound employed in this assay was […] for both routes of administration. If this initial screening dose of the test compound produced analgesia in seven of ten mice, then the effect of additional doses of the test compound on the writhing response was evaluated, and then the ED50 dose was generally calculated. (The slopes of the dose-response curves for all test compounds analyzed were compared as described by Tallarida and Murray, Manual of Pharmacologic Calculations, Page 11 (Springer Verlag, New York, 1981)).

[2] = system: prostaglandin E2-induced contractions of segments of guinea pig ileum; experiment: Prostaglandin (PGE) Antagonism Assay in guinea pig ileum; type: cell-based; parameters: key to PGE ANTAGONISM IN GUINEA PIG ILEUM (Active): Active: A concentration of test compound was determined to be "active" if it produced a dose ratio significantly greater than that obtained in a series of blank treatments; conditions: for PGE ANTAGONISM IN GUINEA PIG ILEUM (Active): initial concentration of test compound, dose ratio of EC50 dose values versus blank treatments; for Kb: Cavia porcellus, read-out: PGE ANTAGONISM IN GUINEA PIG ILEUM (pA2) (converted)
Method: In order to determine the effectiveness of several of the compounds of the present invention ("test compounds") as prostaglandin E2 antagonists, a prostaglandin antagonism assay was conducted, as described below, to determine the ability of these compounds to inhibit prostaglandin E2-induced contractions of segments of guinea pig ileum.
Male albino guinea pigs weighing 200 to 500 grams were sacrificed by cervical dislocation.
The ileums were then quickly removed from the guinea pigs and placed in a modified Tyrode solution, a solution which is known to those of skill in the art, containing one-half of the usual amount of magnesium ions.
Segments of ileum about 2 cm long were then cut and mounted in a 10-mL tissue bath containing the modified Tyrode solution. The solution was maintained at 37°C and aerated with a gaseous mixture of 95% oxygen and 5% carbon dioxide.
Submaximal contractions of the ileum segments were then generated by injecting prostaglandin E2 into the bath, and detected isotonically. Data for a control prostaglandin E2 dose response curve plotting concentration of prostaglandin E2 versus number of contractions generated was then obtained by experimentally adjusting the dose of the prostaglandin E2 being injected into the tissue bath, in a manner known by those of skill in the art.
Solutions or suspensions containing an initial amount of a test compound in modified Tyrode solution ("test solutions/ suspensions") were then separately substituted for the tissue bath. Each test solution/suspension was then kept in constant contact with the ileum tissue, except for brief periods to drain the bath in preparation for rinsing with fresh test solution/suspension. Different doses of prostaglandin E2 were again injected into the test solutions/suspensions.
A second prostaglandin E2 dose response curve was then generated for prostaglandin E2 in the presence of a test compound.
A dose ratio of EC50 dose values was then calculated from the results of each test in a manner known by those of skill in the art. […] Duplicate tests were conducted on each concentration of test compound.
If the initial concentration of a test compound was determined to be "active," then varying concentrations of the test compound were then assayed. As is shown in Table I below, all test compounds analyzed in this assay were determined to be "active" as prostaglandin E2 antagonists at the initial concentration.
The pA2 value (a statistical constant which is a common measure of expressing the potency of a particular drug as a competitive antagonist) was then calculated for each test compound by schild plot calculations, as described by H. O. Schild, "pA, A New Scale for the Measurement of Drug Antagonism," Br. J. Pharmacol, 2, 189 (1947), according to the following mathematical formula: pA2 = -log[Test Compound] to quantitate the effectiveness of the test compounds as prostaglandin E2 antagonists.

Row | Compound | PBQ WRITHING ASSAY (ED50 (mpk)) I.G. ([1]; intragastric administration) | PBQ WRITHING ASSAY I.G. (Active / *) [1] | PBQ WRITHING ASSAY (ED50 (mpk)) S.C. ([1]; subcutaneous administration) | PBQ WRITHING ASSAY S.C. (Active / *) [1] | PGE ANTAGONISM IN GUINEA PIG ILEUM (pA2) ([2]; Schild plot calculation) | PGE ANTAGONISM IN GUINEA PIG ILEUM (Active) [2] | ED50 ([1]; intragastric administration) | Kb ([2]; Schild plot calculation)
1 | 8-chlorodibenz[b,f][1,4]oxazepine-10(11H)-carboxylic acid, 2-[1-oxo-3-(4-pyridinyl)propyl]hydrazide, monohydrochloride [Example 26] | 6.8 mpk | Active | 6.3 mpk | Active | 6.5 | Active | – | –
2 | O=C(CCc1ccccn1)NNC(=O)N1Cc2ccccc2Oc2ccc(Cl)cc21 [Example 6, 8-chlorodibenz[b,f][1,4]oxazepine-10(11H)-carboxylic acid, 2-[1-oxo-3-(2-pyridinyl)propyl]hydrazide] | – | Active | – | Active | – | Active | 8.6 mg/kg | 2.51 µM
3 | O=C(CCCc1ccsc1)NNC(=O)N1Cc2ccccc2Oc2ccc(Cl)cc21 [Example 16, 8-chlorodibenz[b,f][1,4]oxazepine-10(11H)-carboxylic acid, 2-[1-oxo-4-(3-thienyl)butyl]hydrazide] | – | Active | – | * | – | – | – | –
4 | O=C(NNC(=O)C(F)(F)Cc1ccccn1)N1Cc2ccccc2Oc2ccc(Cl)cc21 [Example 37, 8-chlorodibenz[b,f][1,4]oxazepine-10(11H)-carboxylic acid, 2-[2,2-difluoro-1-oxo-3-(2-pyridinyl)propyl]hydrazide] | – | Active | – | – | – | – | 9.7 mg/kg | –
5 | Cl.O=C(NNC(=O)N1Cc2ccccc2Oc2ccc(Cl)cc21)c1ccccn1 [Example 19, 8-chlorodibenz[b,f][1,4]oxazepine-10(11H)-carboxylic acid, 2-(2-pyridinylcarbonyl)hydrazide, monohydrochloride] | – | * | – | * | – | – | – | –
6 | O=C(CCCc1cccs1)NNC(=O)N1Cc2ccccc2Oc2ccc(Cl)cc21 [Example 9, 8-chlorodibenz[b,f][1,4]oxazepine-10(11H)-carboxylic acid, 2-[1-oxo-4-(2-thienyl)butyl]hydrazide] | – | Active | – | Active | – | Active | 6.8 mg/kg | 0.0251 µM
7 | Cl.O=C(Cc1ccncc1)NNC(=O)N1Cc2ccccc2Oc2ccc(Cl)cc21 [Example 23, 8-chlorodibenz[b,f][1,4]oxazepine-10(11H)-carboxylic acid, 2-(4-pyridinylacetyl)hydrazide, monohydrochloride] | – | * | – | * | – | – | – | –
8 | O=C(CCc1cccnc1)NNC(=O)N1Cc2ccccc2Oc2ccc(Cl)cc21 [Example 8, 8-chlorodibenz[b,f][1,4]oxazepine-10(11H)-carboxylic acid, 2-[1-oxo-3-(3-pyridinyl)propyl]hydrazide, monohydrochloride] | – | Active | – | Active | – | – | – | –
9 | 8-chlorodibenz[b,f][1,4]oxazepine-10(11H)-carboxylic acid, 2-[1-oxo-4-(3-thienyl)-3Z-butenyl]hydrazide [Example 14] | – | * | – | * | – | – | – | –
